Data: patent US12077503B2, “Substituted cyclic amides and their use as herbicides” (FMC CORPORATION, priority 2015, dated 2024)

How the values were obtained:
Assay type in all cases: in vivo
[1] = system: ivy-leaved morning glory (Ipomoea hederacea); test: Test G Pre-Emergence Protocol; details: Ipomoea, pre-emergence, 312 h, evaluated after 13 days
In short: (§1)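 Test compound in 0.5% Tween 20 acetone/water (50:50) was applied at three rates (15.625, 62.5, 250 g/ha) to soil sown one day earlier. After 13 days plants were scored for injury, where 0 means unaffected and 100 means completely damaged.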

[2] = system: velvetleaf (Abutilon theophrasti); test: Test G Pre-Emergence Protocol; details: Abutilon theophrasti, pre-emergence, 312 h, evaluated after 13 days
In short: as §1

[3] = system: corn (Zea mays); test: Test G Pre-Emergence Protocol; details: Zea mays, pre-emergence, 312 h, evaluated after 13 days
In short: as §1

[4] = system: giant foxtail (Setaria faberi); test: Test G Pre-Emergence Protocol; details: Setaria faberi, pre-emergence, 312 h, evaluated after 13 days
In short: as §1

[5] = system: barnyardgrass (Echinochloa crus-galli); test: Test G Pre-Emergence Protocol; details: Echinochloa crus-galli, pre-emergence, 312 h, evaluated after 13 days
In short: as §1

[6] = system: redroot pigweed (Amaranthus retroflexus); test: Test G Pre-Emergence Protocol; details: Amaranthus retroflexus, pre-emergence, 312 h, evaluated after 13 days
In short: as §1

[7] = system: ivy-leaved morning glory (Ipomoea hederacea); test: Test G Post-Emergence Protocol; details: Ipomoea, post-emergence, 312 h, read-out: Morningglory, Ivy-leaved damage rating
In short: (§2)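 A glasshouse post-emergence test: 8-day-old plants sprayed at 15.625, 62.5 or 250 g/ha, then grown at 24/16 °C day/night with 14 h light and 65% humidity. Damage rated 13 days later, 0–100.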

[8] = system: velvetleaf (Abutilon theophrasti); test: Test G Post-Emergence Protocol; details: Abutilon theophrasti, post-emergence, 312 h, read-out: Velvetleaf damage rating
In short: as §2

[9] = system: corn (Zea mays); test: Test G Post-Emergence Protocol; details: Zea mays, post-emergence, 312 h, read-out: Corn damage rating
In short: as §2

[10] = system: giant foxtail (Setaria faberi); test: Test G Post-Emergence Protocol; details: Setaria faberi, post-emergence, 312 h, read-out: Foxtail, Giant damage rating
In short: as §2

[11] = system: barnyardgrass (Echinochloa crus-galli); test: Test G Post-Emergence Protocol; details: Echinochloa crus-galli, post-emergence, 312 h, read-out: Barnyardgrass damage rating
In short: as §2

[12] = system: redroot pigweed (Amaranthus retroflexus); test: Test G Post-Emergence Protocol; details: Amaranthus retroflexus, post-emergence, 312 h, read-out: Pigweed, Redroot damage rating
In short: as §2

[13] = 15.625 g ai/ha, evaluated after 13 days (100=total damage to plant; 0=no damage to plant)
[14] = 62.5 g ai/ha, evaluated after 13 days, 100=total damage to plant, 0=no damage to plant
[15] = 250 g ai/ha, evaluated after 13 days, 100=total damage to plant, 0=no damage to plant

With `CN1C[C@H](c2ccc(C(F)(F)F)cc2)[C@@H](C(=O)Nc2cccc3c2C(=O)OC3)C1=O` (racemic) [Compound 1669] the pest or weed control at 15.625 g/ha ([1]; 15.625 g ai/ha, read-out: Morningglory, Ivy-leaved damage rating (100=total damage to plant; 0=no damage to plant)) was 0%, the pest or weed control at 62.5 g/ha ([1]; 62.5 g ai/ha, 100=total damage to plant, 0=no damage to plant, read-out: Morningglory, Ivy-leaved damage rating) was 0% and the pest or weed control at 250 g/ha ([1]; 250 g ai/ha, read-out: Morningglory, Ivy-leaved damage rating (100=total damage to plant; 0=no damage to plant)) was 10%. For the same compound, the pest or weed control at 15.625 g/ha ([2]; 15.625 g ai/ha, read-out: Velvetleaf damage rating (100=total damage to plant; 0=no damage to plant)) was 0%, the pest or weed control at 62.5 g/ha ([2]; 62.5 g ai/ha, 100=total damage to plant, 0=no damage to plant, read-out: Velvetleaf damage rating) was 0% and the pest or weed control at 250 g/ha ([2]; 250 g ai/ha, read-out: Velvetleaf damage rating (100=total damage to plant; 0=no damage to plant)) was 10%. It also gave a plant injury at 15.625 g/ha ([3]; 15.625 g ai/ha, read-out: Corn damage rating (100=total damage to plant; 0=no damage to plant)) of 0%, a plant injury at 62.5 g/ha ([3]; 62.5 g ai/ha, 100=total damage to plant, 0=no damage to plant, read-out: Corn damage rating) of 0% and a plant injury at 250 g/ha ([3]; 250 g ai/ha, read-out: Corn damage rating (100=total damage to plant; 0=no damage to plant)) of 0%. It also gave a pest or weed control at 15.625 g/ha ([4]; 15.625 g ai/ha, read-out: Foxtail, Giant damage rating (100=total damage to plant; 0=no damage to plant)) of 0%, a pest or weed control at 62.5 g/ha ([4]; 62.5 g ai/ha, 100=total damage to plant, 0=no damage to plant, read-out: Foxtail, Giant damage rating) of 20% and a pest or weed control at 250 g/ha ([4]; 250 g ai/ha, read-out: Foxtail, Giant damage rating (100=total damage to plant; 0=no damage to plant)) of 60%. It also gave a pest or weed control at 15.625 g/ha ([5]; 15.625 g ai/ha, read-out: Barnyardgrass damage rating (100=total damage to plant; 0=no damage to plant)) of 0%, a pest or weed control at 62.5 g/ha ([5]; 62.5 g ai/ha, 100=total damage to plant, 0=no damage to plant, read-out: Barnyardgrass damage rating) of 0% and a pest or weed control at 250 g/ha ([5]; 250 g ai/ha, read-out: Barnyardgrass damage rating (100=total damage to plant; 0=no damage to plant)) of 10%. For the same compound, the pest or weed control at 15.625 g/ha ([6]; 15.625 g ai/ha, read-out: Pigweed, Redroot damage rating (100=total damage to plant; 0=no damage to plant)) was 0%, the pest or weed control at 62.5 g/ha ([6]; 62.5 g ai/ha, 100=total damage to plant, 0=no damage to plant, read-out: Pigweed, Redroot damage rating) was 10% and the pest or weed control at 250 g/ha ([6]; 250 g ai/ha, read-out: Pigweed, Redroot damage rating (100=total damage to plant; 0=no damage to plant)) was 20%. It also gave a pest or weed control at 15.625 g/ha [7, 13] of 0%, a pest or weed control at 62.5 g/ha [7, 14] of 20% and a pest or weed control at 250 g/ha [7, 15] of 60%. It also gave a pest or weed control at 15.625 g/ha [8, 13] of 0%, a pest or weed control at 62.5 g/ha [8, 14] of 0% and a pest or weed control at 250 g/ha [8, 15] of 0%. For the same compound, the plant injury at 15.625 g/ha [9, 13] was 10%, the plant injury at 62.5 g/ha [9, 14] was 0% and the plant injury at 250 g/ha [9, 15] was 0%. The pest or weed control at 15.625 g/ha [10, 13] was 30%, the pest or weed control at 62.5 g/ha [10, 14] was 50% and the pest or weed control at 250 g/ha [10, 15] was 80%. The pest or weed control at 15.625 g/ha [11, 13] was 0%, the pest or weed control at 62.5 g/ha [11, 14] was 30% and the pest or weed control at 250 g/ha [11, 15] was 70%. For the same compound, the pest or weed control at 15.625 g/ha [12, 13] was 0%, the pest or weed control at 62.5 g/ha [12, 14] was 0% and the pest or weed control at 250 g/ha [12, 15] was 30%.
